In patent US20050215548A1 (Cyclacel Limited, priority 2002, published 2005):
Residues, ends and D or L forms follow the SMILES beside them. *: point of attachment. Cbz = O=C(OCc1ccccc1)*; CH2F = FC*

Legend:
AGS = experiment: 72-h MTT cytotoxicity assay, AGS; assay type: cell-based; settings: Homo sapiens, 72-h MTT, Table 1, read-out: IC50 Anti-proliferative effect on cell line AGS
Method in brief: (§1)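 Antiproliferative activity was measured on human tumour lines of differing genetic background: SJSA-1, a primitive multipotential bone sarcoma with wild-type p53 and overexpressed HDM2; H1299, a large cell lung carcinoma, p53 null with low HDM2; and AGS, a gastric adenocarcinoma carrying wild-type p53.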

H1299 = experiment: 72-h MTT cytotoxicity assay, H1299; assay type: cell-based; settings: Homo sapiens, NCI-H1299; 72-h MTT; Table 1; read-out: IC50 Anti-proliferative effect on cell line H 1299
Method in brief: as §1

SJSA-1 = experiment: 72-h MTT cytotoxicity assay, SJSA-1; assay type: cell-based; settings: Homo sapiens, SJSA-1; 72-h MTT; Table 1; read-out: IC50 Anti-proliferative effect on cell line SJSA-1
Method in brief: as §1

HDM2 = biological target: T1, HDM2 (Homo sapiens, UniProt Q00987); experiment: Fluorescence polarisation competitive HDM2 binding assay; settings: text of Example 10, refer Table 1; read-out: competitive inhibition IC50
T1 construct: Recombinant HDM2 (1.5 μg per well) in TBS-BSA buffer
Method in brief: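 Recombinant HDM2 (1.5 μg/well) was preincubated 5 min at room temperature with serially diluted compound in 50 mM Tris pH 7.4, 150 mM NaCl, 0.1% BSA, 5% DMSO final. Fluorescein-labelled p53 peptide (0.2 μM) was then added for 45 min. Polarisation was read at 485/520 nm and IC50 derived from dose-response curves.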

[1] = system: AGS, H1299, MCF7 or SJSA1 cells; experiment: Cell morphology (cell rounding); assay type: cell-based, human; settings: five times IC50
Source text: (§2) Equal amounts of cell lysate were separated by SDS-PAGE and analysed by immunoblotting using the indicated antibodies. An estimation of the extent of cell rounding is indicated above each lane. The arrow indicates the position of a 85-kDa cleavage product of PARP, indicative of apoptosis. (B) The effect of compound 2 on the levels of the cell cycle proteins in AGS cells (wild-type 53). […] Equal amounts of cell lysate were separated by SDS-PAGE and analysed by immunoblotting using the indicated antibodies. An estimation of the extent of cell rounding is indicated above each lane. (C) The effect of negative control compound (refer Example 10), compound 2, cisplatin, and anisomycin on the levels of key proteins in MCF7 cells. […] Cisplatinum and anisomycin (a transcription inhibitor) treatments were with 50 μM or 37 μM, respectively. Cells were harvested at various time points; afterwards lysates were prepared and separated by SDS-PAGE and analysed by immunoblotting. The proteins detected are indicated. The extent of rounded or floating cells and the percentage viable cells were assessed. […] Equal amounts of cell lysate were separated by SDS-PAGE and analysed by immunoblotting using a range of antibodies. An estimation of the extent of cell rounding is indicated above each lane. […] SJSA1 cells were treated with 5 times [IC50] of compound 2 and collected at the indicated time points. Equal amounts of cell lysate were separated by SDS-PAGE and analysed by immunoblotting using a range of antibodies. An estimation of the extent of cell rounding is indicated above each lane.
Cells were treated with 5 times [IC50] of compound 2 and collected at various time points. The percentage of rounded cells was counted before cells were trypsinised and counted for cell viability using trypan blue.
Cells were lysed and equal amounts were analysed by SDS-polyacrylamide gel electrophoresis (SDS-PAGE) and immunoblotting. […] The reduction in E2F-1 levels correlated with reduction in E2F transcriptional activity as determined by an E2F-dependent luciferase reporter assay (refer Example 6).

[2] = system: key proteins in the HDM2 pathway; experiment: SDS-PAGE and immunoblotting of key proteins in the HDM2 pathway; assay type: cell-based, human
Source text: as §2, with “The arrow indicates the position of a 85-kDa cleavage product of PARP, indicative of apoptosis.” left out
Many types of cellular stress converge on the p53 pathway and induce its activity. […] The biological effect of bisarylsufonamides on cellular level was studies using representative compounds (mainly compound 2) and number of cell lines with different HDM2 and p53 status. These were overexpressing Hdm2 (SJSA1—osteosarcoma), wild type p53 and normal levels of HDM2 (AGS—gastric adenocarcinoma, MCF7—breast adenocarcinoma), or p53 null, low levels of HDM2 (H1299—large cell lung carcinoma).
Cells were lysed and equal amounts were analysed by SDS-polyacrylamide gel electrophoresis (SDS-PAGE) and immunoblotting.

AGS cells = experiment: Caspase activity (casp ACE assay), AGS; assay type: cell-based, human; settings: 24 hours
Procedure: In more detail: (A) Cells were treated with […] [IC50] of compound 2 or cisplatinum and collected at the time points indicated. Cell lysates were prepared, the caspase activity was determined using the casp ACE assay and values were plotted on a graph. (B) Cells were treated with 5 times [IC50] of compound 2 or cisplatinum and collected at the time points indicated. AGS cells were also incubated with compound 2 in the presence of a caspase inhibitor Z-VAD.fmk. Cell lysates were prepared, the caspase activity was determined using the casp ACE assay and values were plotted on a graph.
To characterise the apoptosis-inducing properties of bisarylsulfonamides caspase ⅓ activty was measured. AGS or H1299 cells were treated with a low concentration of compound 2 or cisplatin corresponding to twice the IC50 value (FIG. 6A). Morphological changes were detected in 10-20% of cells by 72 hours corresponding to an induction of caspase activity first detected at 48 hours, increasing by 72 hours. We also treated AGS and H1299 cells with higher concentrations corresponding to five times the IC50 (FIG. 6B). In this experiment we included a […], Z-VAD.fmk to determine the caspase responsible.

T1 sequence (Q00987 whole entry): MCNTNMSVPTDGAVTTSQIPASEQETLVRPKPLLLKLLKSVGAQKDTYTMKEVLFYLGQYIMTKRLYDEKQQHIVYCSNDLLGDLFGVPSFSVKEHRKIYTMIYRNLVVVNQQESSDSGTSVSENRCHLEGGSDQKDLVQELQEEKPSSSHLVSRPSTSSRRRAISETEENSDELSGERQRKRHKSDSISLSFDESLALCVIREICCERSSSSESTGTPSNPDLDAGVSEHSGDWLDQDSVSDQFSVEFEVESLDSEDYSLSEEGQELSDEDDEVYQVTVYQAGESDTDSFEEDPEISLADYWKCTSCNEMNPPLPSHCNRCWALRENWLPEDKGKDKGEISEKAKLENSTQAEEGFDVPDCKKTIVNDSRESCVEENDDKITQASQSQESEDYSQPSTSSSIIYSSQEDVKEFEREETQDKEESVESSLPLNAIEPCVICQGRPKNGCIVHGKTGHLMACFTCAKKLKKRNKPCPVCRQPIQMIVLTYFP

Compound	IC50 (AGS) [µM]	IC50 (H1299) [µM]	IC50 (SJSA-1) [µM]	IC50 (HDM2) [µM]	cell rounding [1]	PARP cleavage / PARP levels ([2]; five times IC50, 85-kDa cleavage product marker for apoptosis)	changes in protein levels and cell morphology ([2]; negative control: MCF7, 13.5 μM, 68/69: MCF7 and H1299 at five times IC50 of 69, 49: AGS, SJSA1, H1299)	caspase activity induced by compound 2 in presence of caspase inhibitor (AGS cells)
O=[N+]([O-])c1csc(S(=O)(=O)Nc2ccc(Cl)cc2)c1 [Compound 69, 4-Nitro-thiophene-2-sulfonic acid (4-chloro-phenyl)-amide]	19	30	28	151	No rapid cell rounding	Rapid reduction in PARP levels	induced changes in both morphology and protein levels	–
COC(=O)C[C@H](NC(=O)[C@H](C)NC(=O)[C@@H](NC(=O)OCc1ccccc1)C(C)C)C(=O)CF [Z-VAD.fmk, reference compound] (Cbz-Val-Ala-Asp(OMe)-CH2F)	–	–	–	–	–	–	–	reduced the caspase activity to background levels
